Here are results for eleven compounds from PubChem BioAssay AID194 (DTP/NCI, 2004).

For this test, the system named is BDF1 mice, B16 melanoma s.c., survival/tumor T/C. Put plainly: NCI In Vivo Anticancer Drug Screen. Data for tumor model B16 Melanoma (subcutaneous) in B6D2F1 (BDF1) mice. Here is the method:
The antitumor activity of compounds was measured in mice bearing transplantable tumors. Survival or tumor size were measured and the results are expressed as the measurement made in the treated group (T) divided by the measurement made in the vehicle treated control group (C). The tumor model used in this assay is B16 Melanoma (subcutaneous) in B6D2F1 (BDF1) mice

[1] abbreviates: endpoint: median survival time, dose: 50.0 mg/kg/injection, schedule: Q01DX009 (ip), vehicle: saline, higher = longer survival.
Where [2] appears, read: endpoint: median survival time, dose: 100.0 mg/kg/injection, schedule: Q01DX009 (ip), vehicle: saline, higher = longer survival.

“And” between values parts separate entries of the source, which are not always exact repeats. Equal values may be shown once. Results filed as inconclusive are left out.

For `O=C1OC(C(O)CO)C(O)=C1O` (stereo unspecified), the T/C under setting [1] is 106 % of control; the T/C under setting [2] is 103 % of control; the T/C (endpoint: median survival time, dose: 200.0 mg/kg/injection, schedule: Q01DX009 (ip), vehicle: saline, higher = longer survival) was 103 % of control; the T/C (endpoint: median survival time, dose: 400.0 mg/kg/injection, schedule: Q01DX009 (ip), vehicle: saline, higher = longer survival) is 109 % of control; the T/C (endpoint: median survival time, dose: 800.0 mg/kg/injection, schedule: Q01DX009 (ip), vehicle: saline, higher = longer survival) was 109 % of control.
As to `COC1=C2C[C@@H](C)C[C@@H](OC)[C@@H](O)[C@H](C)/C=C(\C)[C@@H](OC(N)=O)[C@H](OC)/C=C\C=C(/C)C(=O)NC(=CC1=O)C2=O`, the T/C (endpoint: median survival time, dose: 0.5 mg/kg/injection, schedule: Q01DX005 (ip), vehicle: water, higher = longer survival) was 118 % of control and the T/C (endpoint: median survival time, dose: 1.0 mg/kg/injection, schedule: Q01DX005 (ip), vehicle: water, higher = longer survival) is 105 % of control.
In the case of `CCOC(=O)CNC(=O)CCCCSc1ncnc2nc[nH]c12`, the T/C by setting is: (endpoint: median survival time, dose: 20.0 mg/kg/injection, schedule: Q01DX009 (ip), vehicle: Klucel (hydroxypropylcellulose) (HPC), higher = longer survival) 121 % of control; (endpoint: median survival time, dose: 40.0 mg/kg/injection, schedule: Q01DX009 (ip), vehicle: Klucel (hydroxypropylcellulose) (HPC), higher = longer survival) 111 % of control; (endpoint: median survival time, dose: 80.0 mg/kg/injection, schedule: Q01DX009 (ip), vehicle: Klucel (hydroxypropylcellulose) (HPC), higher = longer survival) 119 % of control; (endpoint: median survival time, dose: 160.0 mg/kg/injection, schedule: Q01DX009 (ip), vehicle: Klucel (hydroxypropylcellulose) (HPC), higher = longer survival) 115 % of control; (endpoint: median survival time, dose: 320.0 mg/kg/injection, schedule: Q01DX009 (ip), vehicle: Klucel (hydroxypropylcellulose) (HPC), higher = longer survival) 118 % of control; (endpoint: median survival time, dose: 640.0 mg/kg/injection, schedule: Q01DX009 (ip), vehicle: Klucel (hydroxypropylcellulose) (HPC), higher = longer survival) 122 % of control.
Take `NC(CS/C(Cl)=C/Cl)C(=O)O` (stereo unspecified): the T/C by setting is: (endpoint: median survival time, dose: 1.25 mg/kg/injection, schedule: Q01DX009 (ip), vehicle: saline, higher = longer survival) 102 % of control; (endpoint: median survival time, dose: 2.5 mg/kg/injection, schedule: Q01DX009 (ip), vehicle: saline, higher = longer survival) 95 % of control; (endpoint: median survival time, dose: 5.0 mg/kg/injection, schedule: Q01DX009 (ip), vehicle: saline, higher = longer survival) 97 % of control and 106 % of control; (endpoint: median survival time, dose: 18.0 mg/kg/injection, schedule: Q01DX009 (ip), vehicle: saline, higher = longer survival) 101 % of control.
In the case of `C1CN1c1nc(N2CC2)nc(N2CC2)n1`, the T/C by setting is: (endpoint: median survival time, dose: 0.12 mg/kg/injection, schedule: Q01DX009 (ip), vehicle: saline, higher = longer survival) 106 % of control; (endpoint: median survival time, dose: 0.5 mg/kg/injection, schedule: Q01DX009 (ip), vehicle: saline with Tween-80, higher = longer survival) 110 % of control; (endpoint: median survival time, dose: 0.5 mg/kg/injection, schedule: Q08DX002 (ip), vehicle: saline with Tween-80, higher = longer survival) 104 % of control; (endpoint: median survival time, dose: 1.0 mg/kg/injection, schedule: Q01DX009 (ip), vehicle: saline with Tween-80, higher = longer survival) 93 % of control; (endpoint: median survival time, dose: 2.0 mg/kg/injection, schedule: Q08DX002 (ip), vehicle: saline with Tween-80, higher = longer survival) 179 % of control; (endpoint: median survival time, dose: 4.0 mg/kg/injection, schedule: Q08DX002 (ip), vehicle: saline with Tween-80, higher = longer survival) 87 % of control. The T/C is 154 % of control (endpoint: median tumor weight (est.), dose: 0.12 mg/kg/injection, schedule: Q01DX009 (ip), vehicle: saline with Tween-80, higher = larger tumour); 95 % of control (endpoint: median tumor weight (est.), dose: 0.25 mg/kg/injection, schedule: Q01DX009 (ip), vehicle: saline with Tween-80, higher = larger tumour); 83 % of control (endpoint: median tumor weight (est.), dose: 0.5 mg/kg/injection, schedule: Q01DX009 (ip), vehicle: saline with Tween-80, higher = larger tumour); 268 % of control (endpoint: median tumor weight (est.), dose: 0.5 mg/kg/injection, schedule: Q08DX002 (ip), vehicle: saline with Tween-80, higher = larger tumour); 34 % of control (endpoint: median tumor weight (est.), dose: 1.0 mg/kg/injection, schedule: Q01DX009 (ip), vehicle: saline, higher = larger tumour); 104 % of control (endpoint: median tumor weight (est.), dose: 1.0 mg/kg/injection, schedule: Q08DX002 (ip), vehicle: saline with Tween-80, higher = larger tumour). The T/C (endpoint: median tumor weight (est.), dose: 2.0 mg/kg/injection, schedule: Q08DX002 (ip), vehicle: saline with Tween-80, higher = larger tumour) was 81 % of control; the T/C (endpoint: median tumor weight (est.), dose: 4.0 mg/kg/injection, schedule: Q08DX002 (ip), vehicle: saline with Tween-80, higher = larger tumour) is 19 % of control; the T/C (endpoint: median tumor weight (est.), dose: 4.0 mg/kg/injection, schedule: Q08DX002 (ip), vehicle: saline, higher = larger tumour) was 86 % of control.
Consider `NC(=O)c1ccc[n+](Cc2c(Cl)cccc2Cl)c1`, for which the T/C is, setting by setting: (endpoint: median survival time, dose: 0.75 mg/kg/injection, schedule: Q01DX009 (ip), vehicle: saline, higher = longer survival) 106 % of control; (endpoint: median survival time, dose: 3.0 mg/kg/injection, schedule: Q01DX009 (ip), vehicle: saline, higher = longer survival) 98 % of control; (endpoint: median survival time, dose: 6.0 mg/kg/injection, schedule: Q01DX009 (ip), vehicle: saline, higher = longer survival) 102 % of control and 117 % of control; (endpoint: median survival time, dose: 12.0 mg/kg/injection, schedule: Q01DX009 (ip), vehicle: saline, higher = longer survival) 106 % of control and 114 % of control.
`CC1(C)N=C(N)N=C(N)N1c1ccc(OCCCNC(=O)Nc2cccc(S(=O)(=O)F)c2)c(Cl)c1`: the T/C under setting [1] is 115 % of control and the T/C under setting [2] was 91 % of control.
`COC(=O)C[C@](O)(CCC(C)(C)O)C(=O)O[C@@H]1C(OC)=C[C@]23CCCN2CCc2cc4c(cc2[C@H]13)OCO4`: the T/C was 101 % of control (endpoint: median survival time, dose: 0.7 mg/kg/injection, schedule: Q01DX009 (ip), vehicle: saline, higher = longer survival); 87 % of control (endpoint: median survival time, dose: 1.0 mg/kg/injection, schedule: Q01DX009 (ip), vehicle: saline, higher = longer survival); 91 % of control (endpoint: median survival time, dose: 1.5 mg/kg/injection, schedule: Q01DX009 (ip), vehicle: saline, higher = longer survival); 105 % of control (endpoint: median survival time, dose: 2.3 mg/kg/injection, schedule: Q01DX009 (ip), vehicle: saline, higher = longer survival).
With `CCN(CC)CCNc1ccc(CO)c2sc3ccccc3c(=O)c12`, the T/C (endpoint: median survival time, dose: 34.0 mg/kg/injection, schedule: Q01DX005 (ip), vehicle: water, higher = longer survival) is 105 % of control; the T/C (endpoint: median tumor weight (est.), dose: 34.0 mg/kg/injection, schedule: Q01DX005 (ip), vehicle: water, higher = larger tumour) is 55 % of control; the T/C (endpoint: median tumor weight (est.), dose: 50.0 mg/kg/injection, schedule: Q01DX005 (ip), vehicle: water, higher = larger tumour) is 72 % of control; the T/C (endpoint: median tumor weight (est.), dose: 75.0 mg/kg/injection, schedule: Q01DX005 (ip), vehicle: water, higher = larger tumour) was 28 % of control.
In the case of `CCOC(=O)c1csc(-c2csc(CCNC(=O)c3ccccc3)n2)n1`, the T/C (endpoint: median survival time, dose: 6.25 mg/kg/injection, schedule: Q01DX009 (ip), vehicle: saline with Tween-80, higher = longer survival) was 95 % of control; the T/C (endpoint: median survival time, dose: 12.5 mg/kg/injection, schedule: Q01DX009 (ip), vehicle: saline with Tween-80, higher = longer survival) is 102 % of control; the T/C (endpoint: median survival time, dose: 25.0 mg/kg/injection, schedule: Q01DX009 (ip), vehicle: saline with Tween-80, higher = longer survival) is 87 % of control; the T/C (endpoint: median survival time, dose: 50.0 mg/kg/injection, schedule: Q01DX009 (ip), vehicle: saline with Tween-80, higher = longer survival) was 91 % of control; the T/C (endpoint: median survival time, dose: 100.0 mg/kg/injection, schedule: Q01DX009 (ip), vehicle: saline with Tween-80, higher = longer survival) is 106 % of control.
As to `CCOC(=O)c1csc(CCNC(=O)c2ccccc2)n1`, the T/C (endpoint: median survival time, dose: 6.25 mg/kg/injection, schedule: Q01DX009 (ip), vehicle: water, higher = longer survival) is 101 % of control; the T/C (endpoint: median survival time, dose: 12.5 mg/kg/injection, schedule: Q01DX009 (ip), vehicle: water, higher = longer survival) is 94 % of control; the T/C (endpoint: median survival time, dose: 25.0 mg/kg/injection, schedule: Q01DX009 (ip), vehicle: water, higher = longer survival) was 113 % of control; the T/C (endpoint: median survival time, dose: 50.0 mg/kg/injection, schedule: Q01DX009 (ip), vehicle: water, higher = longer survival) was 87 % of control; the T/C (endpoint: median survival time, dose: 100.0 mg/kg/injection, schedule: Q01DX009 (ip), vehicle: water, higher = longer survival) was 98 % of control.
